Patent US20220265836A1, “COMPLEX, MEDICINE, THERAPEUTIC AGENT FOR CANCER, KIT AND CONJUGATE” (TOKYO INSTITUTE OF TECHNOLOGY, priority 2019, published 2022)
Marks after values point to notes of the source that are not given here.

Tests used:
[1] = Bonding force by alizarin red method, PEG-P[Lys(FPBA)10]20; format: binding; details: for relative equilibrium constant with PEG10k-P[Lys(FPBA)10]20: alizarin red method, Ex 468 nm/Em 572 nm
Description: (§1) The bonding force was evaluated by the alizarin red method, which has been established as a method for quantifying the bonding force between boronic acid and the diol structure. The principle of the alizarin red method is briefly shown below by taking the method carried out in present Examples as an example.
[Final Concentrations of GFP, TA, PEG-FPBA, and PEG-P[Lys(FPBA)10]20] • Solution A: ARS (9.0×10^−6 M) • Solution B: ARS (9.0×10^−6 M)+PEG-FPBA (FPBA concentration: 2.0×10^−3 M) • Solution C: ARS (9.0×10^−6 M)+PEG-P[Lys(FPBA)10]20 (FPBA concentration: 2.0×10^−3 M) • Solution D: ARS (9.0×10^−6 M)+PEG-FPBA (FPBA concentration: 2.0×10^−3 M)+tannic acid (diol concentration=5.0×10^−4 M) • Solution E: ARS (9.0×10^−6 M)+PEG-FPBA (2.0×10^−3 M)+gallic acid (diol concentration=5.0×10^−4 M) • Solution F: ARS (9.0×10^−6 M)+PEG-P[Lys(FPBA)10]20 (FPBA concentration: 2.0×10^−3 M)+tannic acid (diol concentration=5.0×10^−4 M) • Solution G: ARS (9.0×10^−6 M)+PEG-P[Lys(FPBA)10]20 (FPBA concentration: 2.0×10^−3 M)+gallic acid (diol concentration=5.0×10^−4 M)
(§2) Solution A, and Solution B or Solution C were mixed in various ratios and the fluorescence measurement was performed (Ex=468 nm, Em=572 nm) using a disposable cell. After substituting the obtained fluorescence intensity and the concentration of each FPBA into the following expression (1) and creating a calibration curve by the least squares method, the equilibrium constant K0 of the ARS-FPBA system was calculated from the slope of the calibration curve. Next, Solution B or Solution C was mixed with Solution D, E, F, or G containing each diol compound in various ratios in the combination of B+D, B+E, C+F, and C+G, and the fluorescence measurement was performed (Ex=468 nm, Em=572 nm) using a disposable cell. After substituting the obtained fluorescence intensity and the concentration of each diol compound into the following expression (2) and creating a calibration curve by the least squares method, the equilibrium constant K1 of each diol compound-BPA system was calculated from the slope of the calibration curve. The equilibrium constant obtained from the calibration curve is shown in Table 2 as a relative equilibrium constant.
[formula] • [L0]=Concentration of FPBA added • [S0]=Concentration of diol added • [I0]=Concentration of ARS
ΔIf=Ifs−Ifa • ΔIfc=Reciprocal of intercept of graph created in ARS-FPBA system • Ifs=Fluorescence intensity of ARS-FPBA • Ifa=Fluorescence intensity of solution A • K0=Equilibrium constant of ARS-FPBA • Kf=Equilibrium constant of diol compound—equilibrium constant of FPBA

[2] = Bonding force by alizarin red method, PEG-FPBA; format: binding; details: Ex 468 nm/Em 572 nm
Description: as §1, with “example. […]” for “example.”
as §2, with “The equilibrium constant obtained from the calibration curve is shown in Table 2 as a relative equilibrium constant.” left out

[3] = Formation of ternary complex encapsulating various substances: particle diameter by DLS or FCS; format: physicochemical; details: for Particle diameter of encapsulated substance: substance alone
Description: Ternary complexes were formed using not only the GFP protein but also a small molecule medicine, a peptide, an adeno-associated virus, an inorganic particle, a nucleic acid, and the like, and the particle diameter change was measured. As the measurement method, dynamic light scattering (DLS) or fluorescence correlation spectroscopy (FCS) was used.
Temperature: 25° C., measurement time: 10 seconds, number of integrations: 10 times
The method for measuring dynamic light scattering is as follows. Dynamic Light Scattering (DLS Zetasizer Nano ZS (manufactured by Malvern Instruments) was used to carry out DLS measurement at a detection angle of […] and a temperature of 25° C. A He—Ne laser (633 nm) was used as the incident beam. Each complex solution was added to a small glass cuvette (capacity: 12 μL, ZEN2112, manufactured by Malvern Instruments). The data obtained from the decay rate in the photon correlation function was analyzed by the Cumulant method, and then the hydrodynamic diameter (the arithmetic mean diameter based on the number of complexes) of each complex was calculated by the above Einstein-Stokes equation. […]
The pitavastatin solution and the tannic acid solution were mixed to adjust a pitavastatin/TA solution. Then, PEG-P[Lys(FPBA)10]20 was added to the pitavastatin/TA solution to adjust a pitavastatin/TA/PEG-P[Lys(FPBA)10]20 (a pitavastatin ternary complex) solution. […]

[4] = Pharmacokinetics of rose bengal ternary complex (blood retention); format: in vivo, mouse; details: 3 hours after intravenous administration, plasma fluorescence
Description: [Final Concentrations of rose bengal, TA, and PEG-P[Lys(FPBA)10]20] • Rose bengal: 0.1 mg/mL • Tannic acid: 1.0 mg/mL • PEG-P[Lys(FBPA)10]20: 16.5 mg/mL
The rose bengal solution and the tannic acid solution were mixed to adjust a rose bengal/TA solution. Then, PEG-P[Lys(FPBA)10]20 was added to the rose bengal/TA solution to adjust a rose bengal solution, a rose bengal/TA complex solution, and a rose bengal/TA/PEG-P[Lys(FPBA)10]20 (a rose bengal ternary complex) solution.
200 μl of the prepared solution described above was intravenously administered to the tail vein of the model mouse. One to three hours after the sample administration, dissection was carried out to recover blood, which was subsequently subjected to centrifugation at 5,000 g×10 minutes at 20° C. to recover 100 μl of a plasma component, and 700 μl of Passive Lysis Buffer was added thereto. Then, the fluorescence intensities (Ex/Em: 520 nm/570 nm) of the plasma component and the administered sample were measured with Spark to evaluate the blood retention. In the figure, rose bengal/TA/PEG-P[Lys(FPBA)10]20 is denoted by a rose bengal/TA/polymer.

## O=C(O)c1cc(O)c(O)c(O)c1 [Gallic acid]
[1]
  bonding constant with PEG-P[Lys(FPBA)10]20 as compared with PEG-FPBA: 2.5 times
  relative equilibrium constant with PEG10k-P[Lys(FPBA)10]20: 5,112
[2]
  relative equilibrium constant with PEG-FPBA: 2,030

## Gelonin
[3]
  Particle diameter of encapsulated substance: 4.1 nm

## C=Cc1c(C)c2cc3nc(c(CC(=O)O)c4[nH]c(cc5nc(cc1[nH]2)C(C)=C5CC)c(C)c4C(=O)O)[C@@H](CCC(=O)O)[C@@H]3C [Chlorine 6, Chlorin e6]
[3]
  Particle diameter of encapsulated substance: 1.2 nm

## Bleomycin sulfate
[3]
  Particle diameter of encapsulated substance: 0.6 nm

## O=C(O)c1c(Cl)c(Cl)c(Cl)c(Cl)c1-c1c2cc(I)c(=O)c(I)c-2oc2c(I)c(O)c(I)cc12 [Rose bengal]
[4]
  concentration in blood: about 0.22%
[3]
  Particle diameter of encapsulated substance: 0.7 nm

## β-D-galactosidase: β-D-galactosidase (βGal): Mw 540 kDa, enzyme
[3]
  Particle diameter of encapsulated substance: 13.9 nm
[3]; ternary complex substance/TA/PEG-P[Lys(FPBA)10]20, dynamic light scattering method
  Particle diameter of complex: 42.8* nm
[3]; ternary complex, dynamic light scattering method
  Polydiversity (PDI): 0.18

## O=C(OC[C@H]1O[C@@H](OC(=O)c2cc(O)c(O)c(OC(=O)c3cc(O)c(O)c(O)c3)c2)[C@H](OC(=O)c2cc(O)c(O)c(OC(=O)c3cc(O)c(O)c(O)c3)c2)[C@@H](OC(=O)c2cc(O)c(O)c(OC(=O)c3cc(O)c(O)c(O)c3)c2)[C@@H]1OC(=O)c1cc(O)c(O)c(OC(=O)c2cc(O)c(O)c(O)c2)c1)c1cc(O)c(O)c(OC(=O)c2cc(O)c(O)c(O)c2)c1 [Tannic acid (TA), Tannic acid]
[1]
  bonding constant with PEG-P[Lys(FPBA)10]20 as compared with PEG-FPBA: 5 times
  relative equilibrium constant with PEG10k-P[Lys(FPBA)10]20: 8,827
[2]
  relative equilibrium constant with PEG-FPBA: 1,877

## O=C([O-])C[C@H](O)C[C@H](O)/C=C/c1c(C2CC2)nc2ccccc2c1-c1ccc(F)cc1.O=C([O-])C[C@H](O)C[C@H](O)/C=C/c1c(C2CC2)nc2ccccc2c1-c1ccc(F)cc1.[Ca+2] [Pitavastatin calcium]
[3]
  Particle diameter of encapsulated substance: Aggregated
[3]; listed as pitavastatin
  Particle diameter of encapsulated substance: 4586 nm
